These results are taken from patent US20260242390A1, “TOTAL SYNTHESES OF PORTIMINE A AND ANALOGUES THEREOF AS SMALL MOLECULE MODULATORS OF NMD3” (priority 2023, published 2026).

The subject of this experiment is Jurkat cells. The experiment can be described thus: Initial SAR: activity of PAL functionalized PTMA analogs. The conditions noted are these: in the concentrate range. It is filed as cell-based, human. The text has this:
FIG. 3. Initial SAR studies: Assessing activity of PAL functionalized PTMA analogs. […] (A) PA and Ph-PA show less toxic to healthy PBMCs compared to Jurkat cells. […] (B) Immunoblot of caspase-3 in Jurkat and PBMCs with indicated conditions.
• 1) Portimine A and its functional analogs show stereo-selective acute toxicity in cancer cells (FIG. 1). […] (B) Structure of portimine related analogs: phenyl-portimine A (Ph-PA, 36) and epi-portimine A (ePA, 38). Structure of fully functionalized portimine A-based epimeric probe pair: portimine A-diazirine-alkyne (PA-DA, 35-2) and epi-portimine A-diazirine-alkyne (ePA-DA, 35-1). (C) Cell viability analysis of portimine A and analogs. Jurkat cells were treated with increasing concentrations of portimine A and analogs for 24 hours. All presented data as mean of biological replicated experiments (n=3). […] Jurkat cells were treated with portimine A or analogs for 12 hours at 10 nM. […] Structurally related negative control ePA and PB are non-toxic in all cell types in the current concentrate range. PBMCs (25k per well), Jurkat (10k per well). […] Cell cycle analysis in Jurkat cells (FIG. 2). Jurkat cells were treated with 10 nM of indicated compounds for 24 hours, and propodium iodide was used to identify different stages of cells by flow cytometry. […] (A) PA and Ph-PA show less toxic to healthy PBMCs compared to Jurkat cells. […] (B) Immunoblot of caspase-3 in Jurkat and PBMCs with indicated conditions. […] (A) Pharmacokinetic studies of mouse intraperitoneal (i.p.) and oral (p.o.) administration for portimine (n=3). […] Impact of PA [0.3 or 1 mg/kg intraperitoneally] on MC38 tumor growth in WT mice (n=6). (C) Kaplan-Myer survival curve of WT MC38 tumor-bearing mice (n=6) after treatment with PA as described in (D). Mice were euthanized when tumor area exceeded 2000 mm^3. Statistical analysis was performed using ANOVA analysis followed by multiple comparisons test, * p≤0.05. Treatment condition: Jurkat (60 M per condition); PA-DA/ePA-DA concentration: 0.5 uM, PA or ePA: 5 uM; Incubate with probe with or without competitors (PA, ePA) for 30 min; UV irradiated for 20 min. (0.5 uM PA-DA add a no-UV condition), Standard pulldown & biotin-enrichment and western blot analysis (Elute condition: 2× sample buffer+500 uM biotin, boil for 20 mins); Primary antibody NMD3 (ProteinTech, 1:150), Actin (BioRad, 1:10000). […] Cell lysates were fractionated by sucrose gradient (5-50%) and each fraction were analyzed by western blot. eIF6 levels increase in 60S subunit fraction and decrease in ribosome-free fractions after PA treatment. […]

As to `C#CCCC1(CCNC(=O)c2ccc(C3=C[C@@H]4[C@@H]5O[C@]6(CC[C@H](O6)C(C)C[C@@H](O)C5=O)CC(O)C5=NCC[C@@]54CC3)cc2)N=N1` (stereo partly drawn) [PA-DA, portimine A-diazirine-alkyne], the “activity of PAL functionalized PTMA analogs” value was “analogous activity to PTMA”.

`C#CCCC1(CCNC(=O)c2ccc(C3=C[C@@H]4[C@@H]5O[C@]6(CC[C@H](O6)C(C)C[C@@H](O)C5=O)C[C@@H](O)C5=NCC[C@@]54CC3)cc2)N=N1` (stereo partly drawn) [ePA-DA, epi-portimine A-diazirine-alkyne]: the “activity of PAL functionalized PTMA analogs” value is listed as “no activity”.

Regarding `C=CC1=C[C@@H]2[C@@H]3O[C@]4(CC[C@H](O4)C(C)C[C@@H](O)C3=O)C[C@@H](O)C3=NCC[C@@]32CC1` (stereo partly drawn) [ePA, epi-portimine A], the “activity of PAL functionalized PTMA analogs” value is reported as “no activity”.
